We go through seven compounds from patent publication US20170291905A1, “ARGININE […] INHIBITORS AND USES THEREOF” (Epizyme, Inc., priority 2014, published 2017).

Bounds are passed on as bounds.

full-length human PRMT6 (Flag- and His-tagged), sequence (Q96LA8 with tags, fused parts or gaps): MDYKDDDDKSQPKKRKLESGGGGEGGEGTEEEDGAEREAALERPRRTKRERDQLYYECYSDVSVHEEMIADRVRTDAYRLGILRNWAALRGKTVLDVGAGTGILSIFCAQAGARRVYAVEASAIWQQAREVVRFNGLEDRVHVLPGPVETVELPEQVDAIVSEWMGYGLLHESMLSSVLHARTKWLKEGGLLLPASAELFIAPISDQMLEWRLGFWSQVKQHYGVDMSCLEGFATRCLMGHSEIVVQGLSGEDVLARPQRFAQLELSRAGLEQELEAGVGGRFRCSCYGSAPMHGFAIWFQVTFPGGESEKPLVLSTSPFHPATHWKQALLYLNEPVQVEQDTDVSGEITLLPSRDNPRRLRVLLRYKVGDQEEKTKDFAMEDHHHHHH

The assay addresses full-length human PRMT6 (Flag- and His-tagged) (Homo sapiens, UniProt Q96LA8). Put plainly: PRMT6 biochemical assay (3H-SAM Flashplate, histone H4 36-50 K44me1 peptide). The note with it: 1 nM PRMT6, 30 min preincubation, 75 nM peptide. The method, boiled down:
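Flag/His-tagged full-length PRMT6 (1 nM) pre-incubated 30 min RT with compound in 20 mM Bicine pH 7.6, then given 200 nM 3H-SAM, 250 nM cold SAM and 75 nM biotinylated H4 36-50 K44me1 peptide. Methylated peptide captured on streptavidin Flashplates and counted; % inhibition versus DMSO and 1 mM SAH controls, fitted to 3- or 4-parameter curves.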
With `CCOC[C@@H]1CC(c2n[nH]cc2CN(C)CCNC)CCC1(C)C` (stereo partly drawn) [compound 31, {2-[({3-[(3R)-3-(ethoxymethyl)-4,4-dimethylcyclohexyl]-1H-pyrazol-4-yl}methyl)(methyl)amino]ethyl}(methyl)amine], the IC50 came to 45.6 nM.

Take `CCOCC1(COCC)CCC(c2nn(C)cc2CN(C)CCNC)CC1` [compound 122]: the IC50 worked out at 42.7 nM.

Consider `CNCCN(C)Cc1cncn1[C@H]1CC[C@]2(CC1)CC(C)(C)CO2` [compound 98], for which the midpoint of inhibition, the IC50, lay at 2790 nM.

Compound `CNCCN(C)Cc1cnnn1[C@H]1CC[C@@]2(CC1)CC(C)(C)CO2` [compound 65] had an IC50 above 10000 nM.

For the compound `CNCCN(C)Cc1c[nH]nc1C1CCC(COCC(C)C)(COCC(C)C)CC1` [compound 6], the IC50 was determined as 32 nM.

`CNCCN(C)Cc1c[nH]nc1C1CCC2(CC1)CC(C)(C)OC2=O` (stereo not shown) [compound 125] gave an IC50 of 17.4 nM.

Regarding `Cc1[nH]nc(C2CCC3(CC2)CC(C)(C)CO3)c1CN(C)CCN` (stereo not shown) [compound 59], the midpoint of inhibition, the IC50, lay at 131 nM.
